Tested on in the first data set: not given
Assay: not given
As to conditions: in vivo, po; cited from earlier work.
T1 sequence (P95493 230-664): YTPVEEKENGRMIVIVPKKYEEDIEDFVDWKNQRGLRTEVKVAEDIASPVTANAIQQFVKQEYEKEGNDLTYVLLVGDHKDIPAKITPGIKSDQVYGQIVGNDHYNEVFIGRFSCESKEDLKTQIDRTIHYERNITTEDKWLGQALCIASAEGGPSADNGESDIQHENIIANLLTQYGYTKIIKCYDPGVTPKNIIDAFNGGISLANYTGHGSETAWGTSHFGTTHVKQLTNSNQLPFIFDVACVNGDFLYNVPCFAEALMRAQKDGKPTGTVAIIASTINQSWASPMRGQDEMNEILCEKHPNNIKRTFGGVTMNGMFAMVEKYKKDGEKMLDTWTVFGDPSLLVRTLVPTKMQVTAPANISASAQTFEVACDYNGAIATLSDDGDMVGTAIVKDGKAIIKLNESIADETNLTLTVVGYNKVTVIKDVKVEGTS
In the case of `CN(NC(=O)CC[C@H](NC(=O)OCc1ccccc1)C(=O)N[C@@H](CCCCN)C(=O)C(=O)NCc1ccccc1)c1ccccc1` [Kyt-36], the half-life entry is “increases the half-life”.

A further data set addresses T1, RgpB (Porphyromonas gingivalis, UniProt P95493).
T1 construct: 0.02 nM RgpB, isolated from culture of Porphyromonas gingivalis; endogenous in cells
Briefly: RgpB inhibition, fluorogenic assay. It counts as biochemical. As to conditions: Activity (RgpB IC50), 0.02 nM RgpB, 10 μM Boc-Phe-Ser-Arg-MCA, 90 minutes, 37° C., pH=7.5. As to the method:
The capacities of compounds of the present invention to inhibit the activity of RgpB were measured in a fluorogenic assay similar to those described in Barret Biochemical Journal. 1980, 187(3), 909. The specific assay conditions were as follows. Buffer: pH=7.5, 100 mM Tris-HCl, 75 mM NaCl, 2.5 mM CaCl2, 10 mM cysteine, 1% DMSO after all additions. Protein: 0.02 nM RgpB, isolated from culture of Porphyromonas gingivalis, as described in Pike et al. J. Biol. Chem. 1994, 269(1), 406, and Potempa and Nguyen. Current Protocols in Protein Scienc. 2007, 21.20.1-21.20.27. Fluorogenic substrate: 10 μM Boc-Phe-Ser-Arg-MCA. Time=90 minutes. Temperature=37° C. Each compound: 10 concentrations, starting at either 100 μM or 100 nM, with lower concentrations generated by serial 3-fold dilutions. By testing a range of concentrations for each compound, the concentration required to inhibit the activity of RgpB by 50% (the “IC50”) was determined.
Regarding `CC(C)N(C#N)CCc1ccnc(N)c1` [Compound 5, N-(2-(2-aminopyridin-4-yl)ethyl)-N-isopropylcyanamide], the IC50 (usually the point on the concentration scale where inhibition reaches its midpoint) was 10 to 100 µM. Take `N#CN(CCOc1ccnc(N)c1)C1CCCCC1` [Compound 40, N-(2-((2-aminopyridin-4-yl)oxy)ethyl)-N-cyclohexylcyanamide]: the IC50 lay within 10 to 100 µM. Still for that read-out and setting: with `CN(C#N)Cc1ccc2c(N)nccc2c1` [Compound 26, N-((1-aminoisoquinolin-6-yl)methyl)-N-methylcyanamide] the figure was 0.1 to 1 µM. The same measure, in the same setting: under `CC(COc1ccnc(N)c1)N(C)C#N` (centres unmarked) [Compound 14, N-(1-((2-aminopyridin-4-yl)oxy)propan-2-yl)-N-methylcyanamide] stands 0.1 to 1 µM; under `COC(C)(C)C(=O)NC(Cc1ccc(N)nc1)C(=O)COc1ccon1` (centres unmarked) [Compound 59, N-(1-(6-aminopyridin-3-yl)-4-(isoxazol-3-yloxy)-3-oxobutan-2-yl)-2-methoxy-2-methylpropanamide], 0.1 to 1 µM; under `N#CN1C[C@H](O)C[C@@H]1c1ccc2c(N)nccc2c1` [Compound 49, (2R,4R)-2-(1-aminoisoquinolin-6-yl)-4-hydroxypyrrolidine-1-carbonitrile], < 0.1 µM. As to `N#CN1CCC[C@@H]1c1ccc2c(N)nccc2c1` [Compound 43, (R)-2-(1-aminoisoquinolin-6-yl)pyrrolidine-1-carbonitrile], the IC50 was < 0.1 µM. Consider `CNc1cc(OCC2CCCN2C#N)ccn1` (centres unmarked) [Compound 22, 2-(((2-(methylamino)pyridin-4-yl)oxy)methyl)pyrrolidine-1-carbonitrile], for which the IC50 fell in the range of 0.1 to 1 µM. For the compound `Nc1ccc(CC(NC(=O)C2CCCC2)C(=O)COc2c(F)ccc(F)c2F)cn1` (centres unmarked) [Compound 66, N-(1-(6-aminopyridin-3-yl)-3-oxo-4-(2,3,6-trifluorophenoxy)butan-2-yl)cyclopentanecarboxamide], the IC50 was < 0.1 µM.

`CNc1nccc2cc([C@@H]3CCCN3C#N)ccc12` [Compound 51a, (S)-2-(1-(methylamino)isoquinolin-6-yl)pyrrolidine-1-carbonitrile] displayed an IC50 of 10 to 100 µM. With `Nc1cc(CC(NC(=O)C2CCCC2)C(=O)COc2c(F)ccc(F)c2F)ccn1` (centres unmarked) [Compound 69, N-(1-(2-aminopyridin-4-yl)-3-oxo-4-(2,3,6-trifluorophenoxy)butan-2-yl)cyclopentanecarboxamide], the IC50 is < 0.1 µM.

The compound `COC(C)(C)C(=O)NC(Cc1ccnc(N)c1)C(=O)COc1c(F)ccc(F)c1F` (centres unmarked) [Compound 64, N-(1-(2-aminopyridin-4-yl)-3-oxo-4-(2,3,6-trifluorophenoxy)butan-2-yl)-2-methoxy-2-methylpropanamide] registered an IC50 of 0.1 to 1 µM. Take `N#CN1CCC(Sc2ccnc(N)c2)C1` (centres unmarked) [Compound 38, 3-((2-aminopyridin-4-yl)thio)pyrrolidine-1-carbonitrile]: the IC50 lay in the range of 10 to 100 µM. The same measure, in the same setting: under `COC(C)(C)C(=O)NC(Cc1ccnc(N)c1)C(=O)COc1c(F)c(F)cc(F)c1F` (centres unmarked) [Compound 65, N-(1-(2-aminopyridin-4-yl)-3-oxo-4-(2,3,5,6-tetrafluorophenoxy)butan-2-yl)-2-methoxy-2-methylpropanamide] stands < 0.1 µM; under `COC(C)(C)C(=O)NC(Cc1ccc(N)nc1)C(=O)COc1c(F)ccc(F)c1F` (centres unmarked) [Compound 61, N-(1-(6-aminopyridin-3-yl)-3-oxo-4-(2,3,6-trifluorophenoxy)butan-2-yl)-2-methoxy-2-methylpropanamide], < 0.1 µM. On the same count and under the same terms, under `CN(C#N)c1ccccc1Oc1ccnc(N)c1` [Compound 27, N-(2-((2-aminopyridin-4-yl)oxy)phenyl)-N-methylcyanamide] stands > 100 µM; under `Nc1ccc(C[C@H](NC(=O)C2CCCC2)C(=O)COc2c(F)c(F)cc(F)c2F)cn1` [Compound 56, (S)—N-(1-(6-aminopyridin-3-yl)-3-oxo-4-(2,3,5,6-tetrafluorophenoxy)butan-2-yl)cyclopentanecarboxamide], < 0.1 µM. Take `COC(C)(C)C(=O)NC(Cc1ccc(N)nc1)C(=O)COc1c(F)cccc1F` (centres unmarked) [Compound 58, N-(1-(6-aminopyridin-3-yl)-4-(2,6-difluorophenoxy)-3-oxobutan-2-yl)-2-methoxy-2-methylpropanamide]: the IC50 was 0.1 to 1 µM.

For the compound `Nc1ccc(CC(NC(=O)C2CCCC2)C(=O)COc2ccon2)cn1` (centres unmarked) [Compound 68, N-(1-(6-aminopyridin-3-yl)-4-(isoxazol-3-yloxy)-3-oxobutan-2-yl)cyclopentanecarboxamide], the IC50 is < 0.1 µM. Turning to `Nc1ccc(CCC(NC(=O)C2CCCC2)C(=O)COc2ccon2)cn1` (centres unmarked) [Compound 74, N-(5-(6-aminopyridin-3-yl)-1-(isoxazol-3-yloxy)-2-oxopentan-3-yl)cyclopentanecarboxamide], the IC50 was < 0.1 µM. Same read-out and setting: with `CCC(COc1ccnc(N)c1)N(C)C#N` (centres unmarked) [Compound 35, N-(1-((2-aminopyridin-4-yl)oxy)butan-2-yl)-N-methylcyanamide] the figure was 1 to 10 µM; with `N#CN1CC(COc2ccnc(N)c2)C1` [Compound 10, 3-(((2-aminopyridin-4-yl)oxy)methyl)azetidine-1-carbonitrile], > 100 µM; with `CN(C)c1cc(OCC2CCCN2C#N)ccn1` (centres unmarked) [Compound 23, 2-(((2-(dimethylamino)pyridin-4-yl)oxy)methyl)pyrrolidine-1-carbonitrile], 10 to 100 µM.

The compound `N#CN1Cc2ccccc2C1COc1ccnc(N)c1` (centres unmarked) [Compound 25, 1-(((2-aminopyridin-4-yl)oxy)methyl)isoindoline-2-carbonitrile] gave an IC50 of 0.1 to 1 µM. For the compound `N#CN1CCCC1c1ccc2c(N)nccc2c1` (centres unmarked) [Compound 45, 2-(1-aminoisoquinolin-6-yl)pyrrolidine-1-carbonitrile], the IC50 is < 0.1 µM. Take `N#CN1CCC(Oc2ccnc(N)c2)CC1` [Compound 8, 4-((2-aminopyridin-4-yl)oxy)piperidine-1-carbonitrile]: the concentration for half-maximal inhibition (IC50) was > 100 µM. In turn, `CN(C#N)Cc1cc2ccnc(N)c2o1` [Compound 48, N-((7-aminofuro[2,3-c]pyridin-2-yl)methyl)-N-methylcyanamide] gave an IC50 of 0.1 to 1 µM. In the case of `N#CN1CCC[C@H]1C(O)Cc1ccnc(N)c1` (stereo partly drawn) [Compound 31, (2S)-2-(2-(2-aminopyridin-4-yl)-1-hydroxyethyl)pyrrolidine-1-carbonitrile], the IC50 is > 100 µM. On the same count and under the same terms, with `N#CN1CCC[C@H]1COc1ccnc(N)c1Cl` [Compound 42, (S)-2-(((2-amino-3-chloropyridin-4-yl)oxy)methyl)pyrrolidine-1-carbonitrile] the figure was 10 to 100 µM; with `N#CN1CCC[C@H]1/C=C/c1ccnc(N)c1` [Compound 32, (S,E)-2-(2-(2-aminopyridin-4-yl)vinyl)pyrrolidine-1-carbonitrile], 0.1 to 1 µM. `CC(C)N(C#N)CCOc1ccnc(N)c1` [Compound 39, N-(2-((2-aminopyridin-4-yl)oxy)ethyl)-N-isopropylcyanamide] returned an IC50 of 10 to 100 µM. On to `CN(C#N)CCOc1ccnc(N)c1` [Compound 13, N-(2-((2-aminopyridin-4-yl)oxy)ethyl)-N-methylcyanamide], for which the IC50 lay in the range of 0.1 to 1 µM.

The data set is the same for the next values; noted with them: Activity (RgpB IC50), compound not tested above 1 μM; 0.02 nM RgpB, 10 μM Boc-Phe-Ser-Arg-MCA, 90 minutes, 37° C.
`COC(C)(C)C(=O)NC(Cc1ccnc(N)c1)C(=O)COC(C(F)(F)F)C(F)(F)F` (centres unmarked) [Compound 73, N-(1-(2-aminopyridin-4-yl)-4-((1,1,1,3,3,3-hexafluoropropan-2-yl)oxy)-3-oxobutan-2-yl)-2-methoxy-2-methylpropanamide]: the IC50 is > 1 µM. The same measure, in the same setting: with `COC(C)(C)C(=O)NC(Cc1ccc(N)nc1)C(=O)COC(C(F)(F)F)C(F)(F)F` (centres unmarked) [Compound 72, N-(1-(6-aminopyridin-3-yl)-4-((1,1,1,3,3,3-hexafluoropropan-2-yl)oxy)-3-oxobutan-2-yl)-2-methoxy-2-methylpropanamide] the figure was > 1 µM.

The values above are taken from patent publication US11059786B2, “Aminopyridine compounds and methods for the preparation and use thereof” (Cortexyme, Inc., priority 2017, dated 2021).
